Experimental data from the NIST ThermoML archive (doi:10.1016/j.fluid.2016.02.005).

Details: Liquid, Closed cell (Static) method

C=C(F)C(F)(F)F [2,3,3,3-tetrafluoro-1-propene]
Details	vapor or sublimation pressure [kPa]
254.1 K	156.8
273.43 K	318.2
293.24 K	592.7
303.17 K	783.9
318.08 K	1153.4
332.97 K	1641.5
348.4 K	2288.8
